Experimental data published in patent publication US5380732A, “Pesticidal compounds” (priority 1986, dated 1995).

Columns and labels:
Assay type in all cases: in vivo
[1] = system: M. domestica; assay: track-spray of acetone-water solution, M. domestica (Example A); conditions: acetone-water (5:95)
Procedure: (§1) The compound of Example 1 was administered in acetone-water (5:95) by track-spray to a range of insect and acarine species, giving the following results.

[2] = system: S. granarius; assay: track-spray of acetone-water solution, S. granarius (Example A); conditions: acetone-water (5:95)
Procedure: as §1

[3] = system: T. castaneum; assay: track-spray of acetone-water solution, T. castaneum (Example A); conditions: acetone-water (5:95)
Procedure: as §1

[4] = system: A. aegypti (larvae); assay: track-spray of acetone-water solution, A. aegypti larvae (Example A); conditions: acetone-water (5:95)
Procedure: as §1

[5] = system: C. quinquefasciatus; assay: track-spray of acetone-water solution, C. quinquefasciatus (Example A); conditions: acetone-water (5:95)
Procedure: as §1

[6] = system: Musca domestica; assay: spray onto 20 female Musca, mortality after 2 days (Example C); conditions: 25° C.
Procedure: (§2) The compounds of the invention were tested by dissolving them in acetone (5%) and then diluting in water/`Synperonic` (94.5%/0.5%) to give a water emulsion. ("Synperonic" is a R.T.M. of I.C.I. plc and is nonylphenol ethoxylate in aqueous solution to give 27%; available from B.D.H., Poole, Dorset, England). The solution was then used to treat the following insects.
20 female Musca were contained in a cardboard cylinder with gauze over either end. Solution containing the compound was sprayed onto the insects so enclosed and mortality assessed after 2 days at 25° C.

[7] = system: Plutella xylostella; assay: fourth instar Plutella larvae sprayed and added to sprayed chinese cabbage leaf (Example C); conditions: 2 days, 25° C.
Procedure: as §2
7 Fourth instar Plutella larvae were sprayea with the solution containing the compound and added to a chinese cabbage leaf which had been similarly sprayed and left to dry. Mortality was assessed after 2 days at 25° C.

[8] = system: Myzus persicae; assay: adult Myzus on chinese cabbage leaf disc sprayed (Example C); conditions: 2 days, 25° C.
Procedure: as §2
10 adult Myzus were placed on a leaf disc of chinese cabbage. 24 hours later the disc was sprayed with the solution containing the compound. Mortality was assessed after 2 days at 25° C.

[9] = system: Tetranychus urticae; assay: leaf discs of infested french bean sprayed (Example C); conditions: 2 days, 25° C.
Procedure: as §2
Leaf discs of infested french bean were sprayed with the solution containing the compound. Mortality was assessed after 2 days at 25° C.

[10] = system: Spodoptera littoralis; assay: injection into fifth instar Spodoptera littoralis larvae (Example D); conditions: 5% solution in DMSO/acetone (50:50), 1.0 ul injected, 2 days, 25° C.
Procedure: The compounds of the invention were also tested by dissolving them in DMSO/acetone (50:50) to give a 5% solution, 1.0 ul of which was injected into fifth instar Spodoptera littoralis larvae. Mortality was assessed after 2 days at 25° C.

[11] = system: Sitophilus granarius; assay: adults on treated wheat, mortality after 6 days, Sitophilus (Example C); conditions: 25° C.
Procedure: as §2
(§3) 20 adult Sitophilus and Tribolium were added to 10 g wheat which had been previously treated with 2 ml of the solution containing the compound. Mortality was assessed after 6 days at 25° C.

[12] = system: Tribolium castaneum; assay: adults on treated wheat, mortality after 6 days, Tribolium (Example C); conditions: at 1000 ppm, 25° C.
Procedure: as §2, §3

[13] = system: Plutella xylostella; assay: discs of chinese cabbage infested with second instar Plutella larvae sprayed (Example C); conditions: 2 days, 25° C.
Procedure: as §2
or Discs of chinese cabbage infested with c8 second instar Plutella larvae were sprayed with the solution containing the compound. Mortality was assessed after 2 days at 25° C.

[14] = system: Spodoptera littoralis; assay: sprayed leaves infested with newly hatched Spodoptera larvae (Example C); conditions: at 200 ppm, +pip but, 3 days
Procedure: as §2
Uninfested leaves were sprayed with the test solution containing the compound (+pip but) and left to dry. These were then infested with 10 newly hatched larvae. Mortality was assessed after 3 days.

[15] = system: Diabrotica undecimpunctata; assay: 2nd instar larvae and their food sprayed on filter paper (Example C); conditions: at 1000 ppm; 2nd instar larvae, 2 days
Procedure: as §2
2nd instar larvae and their food were sprayed on filter paper with the solution containing the compound. Activity was assessed at 2 days.

[16] = system: Blatella germanica; assay: activity against Blatella germanica with piperonyl butoxide; conditions: at up to 10 μg per insect (+piperonyl butoxide)

Molecule: CC(C)CNC(=O)C=CC=CCCCCCCCOc1cccc(Cl)n1 [Example 1, N-Isobutyl 12-(6'-chloro-2'-pyridyloxy)dodeca-2,4-dienamide]
- LD50 [1]: about 200 ppm
- LD50 [2]: > 1000 ppm
- LD50 [3]: > 1000 ppm
- LD50 [4]: > 1000 ppm
- LD50 [5]: > 1000 ppm
- active (mortality) ([6]; at 200 ppm): active
- active (mortality) ([7]; at 1000 ppm): active
- active (mortality) ([8]; at 200 ppm): active
- active (mortality) ([9]; at 1000 ppm): active

Molecule: CC(C)CNC(=O)/C=C/C=C/CCCCCCCOc1cccc(C(F)(F)F)n1 [Example 3, (2E,4E) N-isobutyl 12-(6trifluoromethyl-2'-pyridyloxy) dodeca-2,4-dienamide]
- active (mortality) ([6]; at 200 ppm): active
- active (mortality) ([9]; at 1000 ppm): active

Molecule: CCC(C)NC(=O)C=CC=CCCCCCCCOc1cccc(C(F)(F)F)n1 (stereo not shown) [Example 4]
- active (mortality) ([6]; at 200 ppm): active
- active (mortality) ([9]; at 1000 ppm): active

Molecule: CC(C)CNC(=O)C=CC=CCCCCCCCOc1ccc(C(F)(F)F)cn1 [Example 6]
- active (mortality) ([6]; at 1000 ppm): active

Molecule: CC(C)CNC(=O)C=CC=CCCCCCCCOc1ncccc1C(F)(F)F [Example 7]
- active (mortality) ([7]; at 1000 ppm): active
- active (mortality) [10]: active

Molecule: CC(C=CCCCCCCCOc1cccc(C(F)(F)F)n1)=CC(=O)NCC(C)C [Example 8]
- active (mortality) ([6]; at 1000 ppm): active
- active (mortality) ([7]; at 200 ppm): active
- active (mortality) ([9]; at 200 ppm): active
- active (mortality) [10]: active

Molecule: CC(C=CCCCCCCCOc1cccc(Cl)n1)=CC(=O)NCC(C)C [Example 9]
- active (mortality) ([6]; at 1000 ppm): active
- active (mortality) ([7]; at 200 ppm): active
- active (mortality) ([9]; at 200 ppm): active

Molecule: CC(C)CNC(=O)C=CC=CCCCCCCCOc1cc(C(F)(F)F)cc(Cl)n1 [Example 10]
- active (mortality) ([6]; at 1000 ppm): active
- active (mortality) [11]: active

Molecule: CC(C=CCCCCCCCOc1cc(C(F)(F)F)cc(Cl)n1)=CC(=O)NCC(C)C [Example 11]
- active (mortality) ([6]; at 1000 ppm): active
- active (mortality) ([7]; at 1000 ppm): active
- active (mortality) ([9]; at 1000 ppm): active
- active (mortality) [10]: active

Molecule: CC(C)CNC(=O)C=CC=CCCCCCCCOc1ncccc1Cl [Example 12]
- active (mortality) ([8]; at 1000 ppm): active

Molecule: CCC(C)NC(=O)C=C(C)C=CCCCCCCCOc1ncccc1Cl (stereo not shown) [Example 13]
- active (mortality) ([8]; at 200 ppm): active

Molecule: CC(C)CNC(=O)C=CC=CCCCCCOc1cccc(Cl)n1 [Example 14]
- active (mortality) ([8]; at 1000 ppm): active

Molecule: CC(C)CNC(=O)C=CC=CCCCCCCCOc1ccccn1 [Example 15]
- active (mortality) ([8]; at 200 ppm): active

Molecule: CCC(C)NC(=O)C=CC=CCCCCCCCOc1ccccn1 (stereo not shown) [Example 16]
- active (mortality) ([6]; at 1000 ppm): active
- active (mortality) ([8]; at 200 ppm): active

Molecule: CC(C)CNC(=O)C=CC=CCCCCCCCOc1ccc(Cl)cn1 [Example 17]
- active (mortality) ([6]; at 200 ppm): active
- active (mortality) [12]: active
- active (mortality) ([7]; at 200 ppm): active
- active (mortality) ([9]; at 1000 ppm): active

Molecule: CC(C=CCCCCCCCOc1ccc(Cl)cn1)=CC(=O)NCC(C)C [Example 18]
- active (mortality) ([6]; at 1000 ppm): active
- active (mortality) ([7]; at 1000 ppm): active
- active (mortality) ([8]; at 1000 ppm): active
- active (mortality) ([9]; at 1000 ppm): active

Molecule: CC(C)CNC(=O)/C=C/C=C/CCCCCCCOc1cc(C(F)(F)F)cc(C(F)(F)F)n1 [Example 19, (2E,4E) N-isobutyl 12-(4',6'-bistrifluoromethyl-2'-pyridyloxy) -dodeca-2,4-dienamide]
- active (mortality) ([6]; at 200 ppm): active
- active (mortality) [11]: active
- active (mortality) ([13]; at 200 ppm): active

Molecule: CC(C)CNC(=O)C=CC=CCCCCCCCOc1nc(C(F)(F)F)ccc1C(F)(F)F [Example 20]
- active (mortality) ([13]; at 200 ppm): active

Molecule: C=C(C)CNC(=O)C=CC=CCCCCCCCOc1cc(C(F)(F)F)cc(C(F)(F)F)n1 [Example 21]
- active (mortality) ([6]; at 200 ppm): active
- active (mortality) [11]: active
- active (mortality) ([9]; at 1000 ppm): active

Molecule: CC1(CNC(=O)/C=C/C=C/CCCCCCCOc2cc(C(F)(F)F)cc(C(F)(F)F)n2)OCCO1 [Example 22, (2E,4E) N-(2-methyl-1,3-dioxalan-2-yl)-methyl 12-(4',6'-bistrifluoromethyl-2-pyridyloxy)-dodeca-2,4-dienamide]
- active (mortality) ([6]; at 200 ppm): active
- active (mortality) [11]: active

Molecule: CC(C=CCCCCCCCOc1cc(C(F)(F)F)cc(C(F)(F)F)n1)=CC(=O)NCC(C)C [Example 23]
- active (mortality) ([6]; at 1000 ppm): active
- active (mortality) ([9]; at 1000 ppm): active

Molecule: CC(C)C(C)NC(=O)C=CC=CCCCCCCCOc1cncc(Cl)c1 (stereo not shown) [Example 24]
- active (mortality) ([7]; at 1000 ppm): active

Molecule: CC(C)CNC(=O)C=CC=CCCCCCCCOc1cncc(Cl)c1 [Example 25]
- active (mortality) ([9]; at 200 ppm): active

Molecule: CC(C=CCCCCCCCOc1cccnc1Cl)=CC(=O)NC(C)C(C)C (stereo not shown) [Example 27]
- active (mortality) ([9]; at 1000 ppm): active

Molecule: CC(C)CNC(=O)C=CC=CCCCCCCCOc1cccnc1Br [Example 28]
- active (mortality) ([9]; at 1000 ppm): active

Molecule: CC(C=CCCCCCCCOc1cccnc1Br)=CC(=O)NCC(C)C [Example 29]
- active (mortality) ([9]; at 1000 ppm): active
- active (mortality) [10]: active

Molecule: CCC(C)NC(=O)/C=C/C=C/CCCCCCCOc1ccncc1 (stereo not shown) [Example 30, (2E,4E) -N-(1-methylpropyl) 12-(4'-pyridyloxy)dodeca-2,4-dienamide]
- active (mortality) ([8]; at 1000 ppm): active

Molecule: CC(C)CNC(=O)/C=C/C=C/CCCCCCCOc1ccncc1 [Example 31, (2E,4E) N-Isobutyl 12-(4'-pyridyloxy)-dodeca-2,4-dienamide]
- active (mortality) [11]: active
- active (mortality) ([8]; at 1000 ppm): active

Molecule: CC(C)CNC(=O)/C=C/C=C/CCCCCCCOc1cc(C(F)(F)F)nc(C(F)(F)F)c1 [Example 35, (2E,4E) N-Isobutyl 12-(2',6'-bistrifluoromethyl-4'-pyridyloxy)-dodeca-2,4-dienamide]
- active (mortality) ([6]; at 1000 ppm): active
- active (mortality) [11]: active
- active (mortality) ([13]; at 200 ppm): active
- active (mortality) [10]: active

Molecule: CC(/C=C/CCCCCCOCc1cccc(Cl)n1)=C\C(=O)NCC(C)C [Example 36, (2E,4E) N-Isobutyl 11-(6'-chloro-2'-pyridylmethoxy) -3-methylundeca-2,4-dienamide]
- active (mortality) ([13]; at 1000 ppm): active
- active (mortality) ([9]; at 1000 ppm): active

Molecule: CC(/C=C/CCCCCCCOc1ncc(C(F)(F)F)cc1C(F)(F)F)=C(/F)C(=O)NCC(C)C [Example 38, (2Z,4E)N-Isobutyl 2-fluoro-3-methyl-12-(3,5-bistrifluoromethyl-2-pyridyloxy)dodeca-2,4-dienamide]
- active (mortality) ([6]; at 1000 ppm): active
- active (mortality) ([7]; at 40 ppm): active
- active (mortality) ([9]; at 200 ppm): active
- active (mortality) [14]: active
- active [15]: active
- active [16]: active

Molecule: CC(/C=C/CCCCCCCOc1ncc(C(F)(F)F)cc1Cl)=C(/F)C(=O)NCC(C)C [Example 39, (2Z,4E)N-Isobutyl 2-fluoro-3-methyl-12-(3-chloro-5-trifluoromethyl-2-pyridyloxy) dodeca-2,4-dienamide]
- active [16]: active

Molecule: (2E,4E) N-1-Methylpropyl 12-(4'-chloro-2-pyrimidyloxy) dodeca-2,4-dienamide and (2E,4E) N-1-Methylpropyl 12-(2-chloro-4'-pyrimidyloxy) -dodeca-2,4-dienamide [Example 34]
- active (mortality) ([9]; at 1000 ppm): active

Molecule: (2E,4E) N-Isobutyl 12-(4'-chloro-2'-pyrimidyloxy)-dodeca-2,4-dienamide and (2E,4E) N-Isobutyl 12-(2'-chloro-4-pyrimidyloxy)-dodeca-2,4-dienamide [Example 32]
- active (mortality) ([9]; at 1000 ppm): active

Molecule: (2E/Z,4E) N-Isobutyl 3-methyl-12-(4-chloro-2'-pyrimidyloxy) -dodeca-2,4-dienamide and (2E/Z,4E) N-Isobutyl 3-methyl-12-(2-chloro-4'-pyrimidyloxy) -dodeca-2,4-dienamide [Example 33]
- active (mortality) ([8]; at 1000 ppm): active
